Test results as given in article PMC5015216, “Change in decay rates of dioxin-like compounds in Yusho patients” (Environmental Health, 2016).
Like-named read-outs stand apart in the source and are kept apart here.

Key:
[1] = Longitudinal blood concentration / body burden in Yusho cohort 2002-2010, second-order regression of log body burden; format: in vivo, human (Yusho patients)
From the text: The subjects were 354 patients whose blood concentration of 2,3,4,7,8-PeCDF had been measured three or more times at annual Yusho medical checkups between 2002 and 2010, i.e., 34–42 years since exposure, and for whom the period from the first to last measurement was over 4 years. We examined two chemicals: 2,3,4,7,8-PeCDF, which is the causative chemical, and octachlorodibenzodioxin (OCDD), which is a chemical found in Yusho patients but less commonly in the general public. This research was approved by Nara Medical University Ethics Committee (No. 281–2).
For the logarithm of body burden, which was calculated from concentration and weight, we examined the second derivative by second-order regression. The body burden Cit of patient i at time t is given by:1 logCit=βi+α1t+α2t^2+γ1w1it+γ2w2it
where t is the time, with t = 0 denoting 2006 (middle of the observation period), α2 is the coefficient for a second-order derivative, α1 is the first-order derivative at time t = 0, βi is the reference value for each individual, W1it is the weight and W2it is the lipid in blood (%) of patient i at time t, and γj is the coefficient for weight and lipid in blood. Aylward et al. used an estimate of body fat as volume of distribution, but we used weight and lipid in blood.
We combined all observed concentrations into equation (2):2 y=X⋅β+T⋅α+W⋅γ+ε
where y is the vector of the logarithm of dioxins and dioxin-like compounds in blood lipid concentration, Xβ is the base concentration for each patient, Tα is the change in time, Wγ is an adjustment term according to weight and lipid in blood, and ε is an observation error. X is a matrix with the total number of measurements rows and number of patient columns. T is a matrix with the total number of measurement rows and two columns, second-order and first-order for time. W is the matrix with the total number of measurement rows and two columns, weight and lipid. Equation (3) is a matrix form:3 y=XTWβαγ+ε
By solving multiple linear regressions with the lm function in R, we could estimate first- and second-order derivatives. It was assumed that patients in the same group had same trend with regard to time. […] For the case of one patient and no second-order coefficient measurements, equation (3) equals leads to an equation for estimation of decay rate:4 ka=lnCt2−lnCt1/Δt
We estimated the first- and second-order coefficients, equivalent to the decay rate and change in decay rate, for OCDD and 2,3,4,7,8-PeCDF for each patient group shown in Table 1.

[2] = cited from earlier work
[3] = patient group 2,3,4,7,8-PeCDF concentration range 0–10 pg/g lipid
[4] = patient group concentration range 0–10 pg/g lipid
[5] = patient group concentration range 10–20 pg/g lipid
[6] = patient group concentration range 20–50 pg/g lipid
[7] = patient group concentration range 50–100 pg/g lipid
[8] = patient group concentration range >100 pg/g lipid

Row | Structure (SMILES) | Second-order coefficient (equivalent to minus change in apparent elimination rate in 2006) [1, 3] | First-order coefficient (equivalent to minus apparent elimination rate) [1, 4] | First-order coefficient (equivalent to minus apparent elimination rate) [1, 5] | Second-order coefficient (equivalent to minus change in apparent elimination rate in 2006) [1, 5] | First-order coefficient (equivalent to minus apparent elimination rate) [1, 6] | Second-order coefficient (equivalent to minus change in apparent elimination rate in 2006) [1, 6] | First-order coefficient (equivalent to minus apparent elimination rate) [1, 7] | Second-order coefficient (equivalent to minus change in apparent elimination rate in 2006) [1, 7] | First-order coefficient (equivalent to minus apparent elimination rate) [1, 8] | Second-order coefficient (equivalent to minus change in apparent elimination rate in 2006) [1, 8] | apparent half-life ([2]; Yusho patients with blood 2,3,4,7,8-PeCDF ≥50 pg/g lipid, first of two groups) | change in blood levels over time ([2]; Yusho patients with blood 2,3,4,7,8-PeCDF ≥50 pg/g lipid, second of two groups) | apparent half-life ([2]; Yusho patients, group that became larger since medical checkups began) | apparent half-life ([2]; Yusho patients, group that became smaller since medical checkups began)
1 | Clc1c(Cl)c(Cl)c2c(c1Cl)Oc1c(Cl)c(Cl)c(Cl)c(Cl)c1O2 [OCDD, octachlorodibenzodioxin] | −0.006366 | −0.01433 | −0.01954 | −0.003289 | −0.02054 | −0.001897 | −0.01224 | −0.002991 | −0.009034 | −0.004341 | – | – | – | –
2 | Clc1cc2oc3c(Cl)c(Cl)c(Cl)cc3c2cc1Cl [2,3,4,7,8-PeCDF, 2,3,4,7,8-pentachlorodibenzofuran] | −0.000596 | −0.004032 | −0.000462 | 0.000464 | 0.001669 | 0.000643 | −0.005452 | 0.002124 | −0.008294 | 0.001436 | ≈ 10 years | no reduction | near infinite | around 10 years
